# Values joined by “and” are separate entries in the source; they are usually repeats but may differ in a detail not shown here. Equal entries are not always repeated.
row,melting point,Structure (SMILES)
1,182 °C (dec.),C=CC(=O)Nc1c[nH]nc1Cl
2,163 to 166 °C and 168 to 171 °C,CC(=O)SCCC(=O)Nc1cn(-c2cccnc2)nc1Cl
3,70 to 73 °C,CCN(C(=O)CCS)c1cn(-c2cccnc2)nc1Cl
4,148 to 153 °C,C=CC(=O)Nc1cn(-c2cccnc2)nc1Cl

# Second part, the compound before the results:
row,Structure (SMILES),melting point
1,CC(=O)SCCC(=O)Nc1c[nH]nc1Cl,140 to 143 °C
2,CCN(C(=O)CCSC(C)=O)c1c[nH]nc1Cl,98 to 99 °C
3,C=CC(=O)N(CC)c1c[nH]nc1Cl,156 to 160 °C

# Reference: patent US20180186753A1 (published 2018)
